Experimental data: patent US20040023882A1, “PTH derivatives resistant to skin proteases” (priority 2002, published 2004)

What was measured:
[1] = in vivo; cited from earlier work
[2] = assay type: in vitro ADME, hairless guinea pig
Method: Aliquots (100 μg) of peptide were incubated at 37° C. with skin extract (1 mL) over the indicated periods of time. The remaining peptide was separated and quantified by HPLC. The data represent averages of duplicate experiments;
The incubation of peptides (PTH(1-34), left panel and PTH(1-34) amide, right panel) with skin extracts, over the indicated times, was conducted as described in Example 2. Fractions containing the peaks were collected, lyophilized and the masses were determined by MALDI-TOF.
Hairless guinea pig skin extracts (1 mL aliquots) were prepared from samples of plasma and skin extracts, respectively, and stored at about −20° C. Stock solutions of hPTH(1-34), hPTH(1-34)NH2, hPTH (1-34)NH-propyl, and hPTH (1-34)NH-phenylpropyl were prepared in HPLC-grade water to achieve a concentration of 10 mg of peptide/mL. Aliquots of skin extracts (1 ml) were incubated at 37° C. for 10 minutes prior to the addition of peptide (100 μg; 10 μL stock solution) or water (10 μL) (control). […]
The lyophilized samples were resuspended in 200 μL of 0.1 N acetic acid and centrifuged at 13,000 g for 15 minutes at room temperature. […] Fractions containing the metabolites of PTH derivatives were collected, concentrated by lyophilization and their masses determined by MALDI-TOF MS (using Voyager-DE Perseptive Biosystems according to the manufacture's procedure).

Substance | potency in anabolic actions on the bone relative to PTH(1-34) [1] | stimulation of resorption markers [1] | site of degradation by skin proteases [2]
PTH (1-31) | as potent as PTH(1-34) | without stimulating resorption markers | –
hPTH(1-34) [PTH (1-34)] | – | – | takes place at the carboxyterminal end
